These results are taken from patent publication US4292428A, “Cephalosporin derivatives” (Hoffmann-La Roche Inc., priority 1978, dated 1981).

For one series, the system named is Escherichia coli. The experiment in a line: Activity in vivo: mice infected intraperitoneally with Escherichia coli, survival on the 4th day. Particulars: 96 h, survivors on 4th day, by interpolation, read-out: CD50 (dosage at which 50% of the mice survive). As for the experimental part:
Groups of 5 mice are infected intraperitoneally with an aqueous suspension of Escherichia coli. The derivative to be tested is administered orally or subcutaneously 1, 2.5 and 4 hours after the infection. The number of surviving mice is determined on the 4th day. Various dosages of the derivative are administered and the dosage at which 50% of the mice survive (CD50, mg/kg) is determined by interpolation.

The nature of series [1]: Toxicity (mice, 24 hour value). Particulars: mouse, in vivo, po. As to the method: |Toxicity: (mice, 24 hour value)
Setting [2] is: oral, 1, 2.5 and 4 hours after intraperitoneal infection.
The mark [3] stands for this setting: sc, subcutaneous, 1, 2.5 and 4 hours after intraperitoneal infection.

Read-outs that look alike come from different tables or passages of the source.

Broadly, the LD50 is the dose at which mortality reaches 50%. High values mean a less toxic substance, low ones a more toxic substance.

Turning to `CON=C(C(=O)NC1C(=O)N2C(C(=O)OCOC(=O)C(C)(C)C)=C(CSc3n[nH]c(=O)c(=O)n3C)CSC12)c1ccco1` [Derivative A, Methylene-(6R,7R)-7-[2-(2-furyl)-2-(methoxyimino)-acetamido]-8-oxo-3-[[(1,4,5,6-tetrahydro-4-methyl-5,6-dioxo-as-triazin-3-yl)thio]methyl]-5-thia-1-azabicyclo-[4.2.0]oct-2-ene-2-carboxylate pivalate (Z-isomer)], the ED50 in the series on Escherichia coli (setting [2]) amounted to 0.05 mg/kg; with Escherichia coli (setting [3]), 0.02 mg/kg. In addition, the LD50 at 24 h in series [1] lay within 2500 to 5000 mg/kg.
Consider `CON=C(C(=O)NC1C(=O)N2C(C(=O)OCOC(=O)C(C)(C)C)=C(CSc3nc(=O)c(OCOC(=O)C(C)(C)C)nn3C)CSC12)c1ccco1` [Derivative B, Methylene-(6R,7R)-3-{[[2,5-dihydro-2-methyl-5-oxo-6-[(pivaloyloxy)methoxy]-as-triazin-3-yl]thio]methyl}-7-[2-(2-furyl)-2-(methoxyimino)acetamido]-8-oxo-5-thia-1-azabicyclo[4.2.0]oct-2-ene-2-carboxylate pivalate (Z-isomer)], for which the ED50 with Escherichia coli (setting [2]) was 0.03 mg/kg; in the series on Escherichia coli (setting [3]), 0.02 mg/kg. Further, the LD50 at 24 h in series [1] is 1250 to 2500 mg/kg.
